This is an account of results in patent US20230125482A1, “PROTEIN KINASE C MODULATORS” (Young Therapeutics, LLC, priority 2020, published 2023).

Where a SMILES comes first, the peptide text is derived from it. Where no end group is shown, it is not given here. The star is where a group is joined. Myristoyl = CCCCCCCCCCCCCC(=O)*

In general, solubility refers to the dissolved amount per volume that the medium holds. A lower solubility goes with little dissolved substance.

One data set in a line: Solubility of peptide. It counts as physicochemical.
Another data set deals with isolated rat hearts. Nature of the data set: Myocardial ischemia/reperfusion (I/R) injury in isolated rat hearts (Langendorff, ex vivo). The note with it: for Final Coronary Flow / Final Heart Rate / Final LVDP / Final LVEDP / Final LVESP / Final dP/dtmax / Final dP/dtmin: 50 min post-reperfusion; for Initial Coronary Flow / Initial Heart Rate / Initial LVDP / Initial LVEDP / Initial LVESP / Initial dP/dtmax / Initial dP/dtmin: baseline before ischemia.

Data set [1] relates to rat polymorphonuclear leukocytes (PMNs). As to the kind of experiment: PMA-stimulated superoxide release in rat polymorphonuclear leukocytes (ferricytochrome c reduction, 550 nm). It counts as cell-based. The note with it: for reduction of PMA (100 nM) induced leukocyte superoxide release: vs untreated PMA controls. As to the method: Change in absorbance at 550 nm via ferricytochrome c reduction by superoxide after stimulation with 100 nM phorbol 12-myristate 13-acetate (PMA) from time 0 to 390 sec was monitored in rat polymorphonuclear leukocytes (PMNs) (5×10^6) incubated for 15 min at 37° C. in the presence/absence of unconjugated PKCβII activator (PKCβII+) (SVEIWD (SEQ ID NO: 23)) or inhibitor (PKCβII−) (SLNPEWNET(SEQ ID NO: 5)), Myr−PKCβII+/−, Myr−PKCβII− scram (Myr-WNPESLNTE (Myristoylated SEQ ID NO: 17), Myr−TAT−PKC|II− (Myristoylated SEQ ID NO: 15) (all 20 μM) or superoxide dismutase (SOD; 10 μg/mL) (FIG. 7). Stock concentrations of compounds were dissolved in DMSO to yield a final concentration not greater that 0.2%. #: p<0.05 vs PMA, Native PKC βII+, Myr−PKC βII+ and Myr−TAT−PKC βII−; **: p<0.01 vs. all groups except Myr−TAT−PKC βII− or SOD; ++: p<0.01 vs. all groups. ANOVA post-hoc analysis was conducted using Bonferroni-Dunn.
The time course of changes in absorbance are summarized in FIGS. 8 (concentration response of Myr+TAT PKCβII−) and 9 (comparison of Myr+TAT+PKCβII− and Myr−PKCβII−, Myr−PKCβII− scrambled, and PKCβII− analogues and PMA controls). The peak response was reached by 300 seconds and maintained a plateau to 390 seconds, Myr+TAT+PKCβII− (20 μM; n=5) reduced phorbol 12-myristate 13-acetate (PMA, 100 nM) induced leukocyte superoxide release by 80%—a degree that was greater than all other study groups (p<0.01). In contrast, the Myr+PKCβII− (20 μM; n=27) reduced leukocyte superoxide release by only 30% (20 μM; n=27), again supporting the concept that the dual Myr−TAT conjugation produced greater results and reduced leukocyte superoxide release by ˜80% and ˜65% as compared to untreated PMA controls (n=74) and Myr+PKCβII− (20 μM; n=27), respectively.

Where [2] appears, read: 10 μM, I(30 min)/R(50 min), infarct tissue weight/total tissue weight.
The mark [3] stands for this setting: ex vivo rat I/R hearts, FIG. 4, concentration not given.

Procedure for isolated rat hearts: Rat hearts were isolated from anesthetized male Sprague Dawley rats (275-325 g), placed in ice-cold Krebs' buffer, and placed onto a Langendorff heart apparatus and retro perfused with Krebs' buffer at a constant pressure of 80 mmHg (FIG. 1). A pressure transducer measures heart rate, left ventricular end-systolic pressure, end-diastolic pressure, dP/dt max, and dP/dt min. Coronary flow is measured via a flow probe connected to the perfusion tubing. Cardiac function was recorded throughout the experimental protocol using a pressure transducer inserted into the left ventricle (15 min baseline; global I(30 min)/R(50 min)). Selected peptides of TABLE 1 or vehicle (control [0.05 to 0.2% Dimethylsulfoxide) were given during the first 5 min of reperfusion. All peptide inhibitors or activators were dissolved in 28% DMSO and the final concentration of DMSO with peptides or without peptides (control I/R hearts) delivered to all hearts was 0.06%. Statistical analysis was performed using ANOVA and Bonferroni-Dunn post-hoc test.
At the end of the experimental protocol, hearts were removed from the Langendorff apparatus, and frozen for 30 min at −20° C. Hearts were sectioned (2 mm) from base to apex and placed in 1% TTC for ˜10 min at 37° C. Viable tissue stained red and infarcted tissue was unstained (pale). Total tissue sections were weighed and infarcted tissue was separated from viable tissue and weighed to determine infarct size (i.e. infarct tissue weight/total tissue weight).

In the case of `CCCCCCCCCCCCCC(=O)N[C@@H](CCC(=O)O)C(=O)N[C@@H](C)C(=O)N[C@H](C(=O)N[C@@H](CO)C(=O)N[C@@H](CC(C)C)C(=O)N[C@@H](CCCCN)C(=O)N1CCC[C@H]1C(=O)N[C@H](C(=O)O)[C@@H](C)O)C(C)C` [Myr + PKCε-, Myr-EAVSLKPT] (Myristoyl-EAVSLKPT-OH; C-terminus assumed), the solubility in “Solubility of peptide” was ≤ 10 mM. In addition, in the data set on isolated rat hearts, the “concentration for similar restoration of post-reperfused cardiac function relative to Myr+TAT+PKCε−” value is recorded as 100 ×. Besides, in the data set with isolated rat hearts (10 μM), the “reduction of infarct size compared to control I/R hearts” value is given as “did not reduce infarct size”, the “restoration of post-reperfused cardiac function” value was “ineffective”, the “Final Coronary Flow” value was 10 ± 1 mL/min and the “Final Heart Rate” value came out at 233 ± 10 BPM. Moreover, in the data set on isolated rat hearts (10 μM), the “Final LVDP” value came out at 46 ± 8 mmHg, the “Final LVEDP” value is reported as 58 ± 3 mmHg, the “Final LVESP” value is reported as 104 ± 6 mmHg and the “Final dP/dtmax” value is given as 723 ± 84 mmHg/s. Also, in the data set with isolated rat hearts (10 μM), the “Final dP/dtmin” value is given as −694 ± 167 mmHg/s, the “Initial Coronary Flow” value is listed as 17 ± 2 mL/min, the “Initial Heart Rate” value was found to be 258 ± 8 BPM and the “Initial LVDP” value was 90 ± 5 mmHg. In the data set with isolated rat hearts (10 μM), the “Initial LVEDP” value stood at 6 ± 1 mmHg, the “Initial LVESP” value is listed as 95 ± 5 mmHg, the “Initial dP/dtmax” value stood at 2294 ± 108 mmHg/s and the “Initial dP/dtmin” value is listed as −1548 ± 92 mmHg/s. Besides, the “Infarct Size” value with isolated rat hearts (setting [2]) was determined as 15 ± 4%.
As for “Myr-LSETKPAV (Myristoyl-LSETKPAV) [Myr + PKCε- Scram.]”, in the data set with isolated rat hearts (10 μM), the “Final Coronary Flow” value is reported as 8 ± 2 mL/min, the “Final Heart Rate” value turned out to be 236 ± 11 BPM, the “Final LVDP” value was found to be 51 ± 9 mmHg and the “Final LVEDP” value is on record as 56 ± 8 mmHg. In the data set on isolated rat hearts (10 μM), the “Final LVESP” value was 107 ± 4 mmHg, the “Final dP/dtmax” value was found to be 958 ± 265 mmHg/s, the “Final dP/dtmin” value is listed as −727 ± 133 mmHg/s and the “Initial Coronary Flow” value amounted to 19 ± 3 mL/min. Besides, in the data set with isolated rat hearts (10 μM), the “Initial Heart Rate” value was 278 ± 10 BPM, the “Initial LVDP” value is 87 ± 4 mmHg, the “Initial LVEDP” value is listed as 9 ± 2 mmHg and the “Initial LVESP” value was 96 ± 6 mmHg. Besides, in the data set on isolated rat hearts (10 μM), the “Initial dP/dtmax” value worked out at 2307 ± 55 mmHg/s and the “Initial dP/dtmin” value was −1571 ± 72 mmHg/s. In the data set on isolated rat hearts (setting [2]), the “Infarct Size” value amounted to 14 ± 3%.
With “Myr-SLNPEWNET (Myristoyl-SLNPEWNET) [Myr+PKCβII−]”, the “reduction of PMA (100 nM) induced leukocyte superoxide release” value in data set [1] (20 μM) was determined as 30%. The molecule further registered an Infarct Size in the data set on isolated rat hearts (setting [3]) of 13±2%.
Regarding “Myr-WNPESLNTE (Myristoyl-WNPESLNTE) [Myr−PKCβII− scrambled]”, the “effect on PMA induced leukocyte superoxide release (in words)” value (from here on “effect”) in data set [1] (20 μM) is listed as “increased”. This molecule also came in with an Infarct Size in the data set with isolated rat hearts (setting [3]) of 22±2%.
For the molecule “Myr-YGRKKRRQRRRCCLSETKPAV (Myristoyl-YGRKKRRQRRRCCLSETKPAV; cysteine pairing not given here) [Myr + TAT + PKCε- Scram.]”, in the data set with isolated rat hearts (1 nM), the “Final Coronary Flow” value came to 7 ± 2 mL/min, the “Final Heart Rate” value is given as 225 ± 1 BPM, the “Final LVDP” value is 50 ± 11 mmHg and the “Final LVEDP” value worked out at 53 ± 4 mmHg. For the same molecule, in the data set with isolated rat hearts (1 nM), the “Final LVESP” value turned out to be 103 ± 14 mmHg, the “Final dP/dtmax” value was found to be 993 ± 195 mmHg/s, the “Final dP/dtmin” value is −760 ± 210 mmHg/s and the “Initial Coronary Flow” value stood at 15 ± 1 mL/min. For the same molecule, in the data set on isolated rat hearts (1 nM), the “Initial Heart Rate” value stood at 278 ± 10 BPM, the “Initial LVDP” value turned out to be 87 ± 1 mmHg, the “Initial LVEDP” value is 6 ± 0.4 mmHg and the “Initial LVESP” value was determined as 92 ± 1 mmHg. In the data set with isolated rat hearts (1 nM), the “Initial dP/dtmax” value is 2267 ± 87 mmHg/s and the “Initial dP/dtmin” value is given as −1490 ± 82 mmHg/s. For the same molecule, the “Infarct Size” value with isolated rat hearts (1 nM, I(30 min)/R(50 min), infarct tissue weight/total tissue weight) was 19 ± 2%. In the data set with isolated rat hearts (100 nM), the “Final Coronary Flow” value stood at 12 ± 4 mL/min, the “Final Heart Rate” value was 295 ± 29 BPM, the “Final LVDP” value is given as 36 ± 12 mmHg and the “Final LVEDP” value turned out to be 57 ± 10 mmHg. Besides, in the data set on isolated rat hearts (100 nM), the “Final LVESP” value is listed as 93 ± 9 mmHg, the “Final dP/dtmax” value is on record as 706 ± 223 mmHg/s, the “Final dP/dtmin” value was −677 ± 222 mmHg/s and the “Initial Coronary Flow” value is 21 ± 6 mL/min. In the data set on isolated rat hearts (100 nM), the “Initial Heart Rate” value is 271 ± 16 BPM, the “Initial LVDP” value was 91 ± 5 mmHg, the “Initial LVEDP” value is reported as 9 ± 2 mmHg and the “Initial LVESP” value came out at 100 ± 4 mmHg. For the same molecule, in the data set on isolated rat hearts (100 nM), the “Initial dP/dtmax” value was determined as 2300 ± 189 mmHg/s and the “Initial dP/dtmin” value is listed as −1545 ± 117 mmHg/s. The “Infarct Size” value in the data set with isolated rat hearts (100 nM, I(30 min)/R(50 min), infarct tissue weight/total tissue weight) was determined as 14 ± 3%. Also, in the data set on isolated rat hearts (10 μM), the “Final Coronary Flow” value stood at 3 ± 0.1 mL/min, the “Final Heart Rate” value was 684 ± 167 BPM, the “Final LVDP” value was 3 ± 2 mmHg and the “Final LVEDP” value is 70 ± 10 mmHg. Moreover, in the data set on isolated rat hearts (10 μM), the “Final LVESP” value was found to be 72 ± 8 mmHg, the “Final dP/dtmax” value was 27 ± 9 mmHg/s, the “Final dP/dtmin” value is given as −24 ± 8 mmHg/s and the “Initial Coronary Flow” value was found to be 18 ± 1 mL/min. Besides, in the data set with isolated rat hearts (10 μM), the “Initial Heart Rate” value is 275 ± 12 BPM, the “Initial LVDP” value amounted to 86 ± 1 mmHg, the “Initial LVEDP” value was 6 ± 1 mmHg and the “Initial LVESP” value is on record as 92 ± 0.3 mmHg. Also, in the data set on isolated rat hearts (10 μM), the “Initial dP/dtmax” value amounted to 2309 ± 69 mmHg/s and the “Initial dP/dtmin” value is given as −1604 ± 71 mmHg/s. Further, the “Infarct Size” value with isolated rat hearts (setting [2]) was 16 ± 6%.
“Myr-YGRKKRRQRRRCCSLNPEWNET (Myristoyl-YGRKKRRQRRRCCSLNPEWNET; cysteine pairing not given here) [Myr+TAT+PKCβII−]”: in data set [1] (20 μM), the “effect” value is “virtually identical to the SOD standard”, the “reduction of leukocyte superoxide release as compared to Myr+PKCβII− (20 μM)” value was ~65% and the “reduction of PMA (100 nM) induced leukocyte superoxide release” value turned out to be 80%. In the data set on isolated rat hearts (setting [3]), this molecule returned an Infarct Size of 5%.
For the molecule “SLNPEWNET (Atificially synthesized) [PKCβII−]”, the “effect” value in data set [1] (20 μM) is listed as “did not exert a significant inhibition”.
Take “Superoxide dismutase [SOD, reference compound]”: the “attenuation of leukocyte superoxide release” value in data set [1] (10 ug/ml, positive control) is recorded as ~94%.
In the case of “YGRKKRRQRRRCCEAVSLKPT (not fully specified; cysteine pairing not given here) [TAT + PKCε-]”, in the data set on isolated rat hearts (10 μM), the “reduction of infarct size compared to control I/R hearts” value was “did not reduce infarct size”, the “Final Coronary Flow” value was 12 ± 4 mL/min, the “Final Heart Rate” value was 242 ± 18 BPM and the “Final LVDP” value is 37 ± 12 mmHg. For the same molecule, in the data set on isolated rat hearts (10 μM), the “Final LVEDP” value was found to be 63 ± 2 mmHg, the “Final LVESP” value was 100 ± 13 mmHg, the “Final dP/dtmax” value was found to be 678 ± 223 mmHg/s and the “Final dP/dtmin” value was −723 ± 84 mmHg/s. Also, in the data set with isolated rat hearts (10 μM), the “Initial Coronary Flow” value is reported as 20 ± 2 mL/min, the “Initial Heart Rate” value was 285 ± 10 BPM, the “Initial LVDP” value is on record as 86 ± 5 mmHg and the “Initial LVEDP” value came out at 7 ± 2 mmHg. Further, in the data set with isolated rat hearts (10 μM), the “Initial LVESP” value was found to be 93 ± 3 mmHg, the “Initial dP/dtmax” value is reported as 2408 ± 126 mmHg/s and the “Initial dP/dtmin” value is given as −1735 ± 149 mmHg/s. In the data set on isolated rat hearts (setting [2]), the “Infarct Size” value is reported as 18 ± 2%.
